In US8134017B1, “Compound and use thereof” (Riken, priority 2010, dated 2012):
Where “and” joins values, the source holds several entries; their conditions need not be identical. Equal values may be shown once.

Columns and labels:
Assay type in all cases: physicochemical
[1] = Solubility in organic solvents and water
[2] = Emission spectra, aggregation-induced emission enhancement (AIEE)
Description: (§1) UV-vis spectra were collected on a SHIMADZU UV-1700 spectrophotometer at RT (room temperature) using a 1 cm or a 0.1 cm quartz cuvette. Emission spectra were collected on a HITACHI F-4500 fluorescence spectrophotometer. To obtain an accurate spectrum, spectrum correction was carried out with rhodamine B concentrated solution and a secondary-standard light source. In surface photometry, a cut filter was utilized to eliminate multiple lights, such as secondary light, due to the effects of light scattering. Fluorescence spectra of all samples were measured with excitation with 365 nm. Average particle size was measured by dynamic light scattering (ELSZ-2, Otsuka Electronics).
In contrast, the emission behavior of rhodamines in aqueous solution was reported to decrease at 10^−4 M and above because of the formation of the H-dimer. The behavior of ABPX01^+ was directly opposite to the concentration quenching of common hydrophobic dyes.
The AIEE characteristics of 500 μM of ABPX01^+ to ABPX04^+ were investigated in various solvents. […] The emission spectrum of 500 μM of ABPX01^+ in THF was nonemissive.
The problem was solved by using the surface photometric method (FIG. 12). Explained below are the respective surface photometric equipment configurations. […] The problem was solved by using the surface photometric method. A sample holder was set at an angle of 30° with respect to the excitation light. However, attention should be paid to the linearity of the emission intensity against the concentration for the accurate evaluation of high-concentration sample solutions, such as AIEE molecules. In addition, the relative quantum yields of ABPX in solution could not be determined because of the lack of a standard compound. The use of the surface photometric method allows development of an apparatus for the measurement of the absolute fluorescence quantum yields of high-concentration solutions.
The emission spectra are shown in (a) and (b) of FIG. 13. The emission could be observed when 30% volume fraction of water was added. The emission was enhanced when 50% to 90% volume fraction of water was added. Absorption measurements were similarly carried out in water/THF mixtures (containing 1% TFA). As the water fraction increased, the sharp aggregate spectra appearing at approximately 548 and 600 nm grew, as shown in (c) of FIG. 13. From 30% volume fraction of water addition, level-off tails were seen, which were attributed to Mie scattering caused by nanosized particles.
In order to check whether or not restriction of […] rotation (RIR) is involved in AIEE of ABPX01^+, viscochromism and thermochromism of the ABPX01^+ emission were examined. RIR was affected by the viscosity and temperature of the solvent. […] ABPX01^+ inhibited intramolecular rotation and induced AIEE at high viscosity and low temperature.

[3] = Particle size of aggregates by dynamic laser scattering (DLS); conditions: 500 μM, 90% water/THF (1% TFA), 25° C.
Description: as §1
With the use of dynamic laser scattering (DLS), the particle size of ABPX01^+ was examined in 90% water/THF mixtures (containing 1% TFA) at 25° C. […] As illustrated in (b) of FIG. 14, the particle size of ABPX01^+ aggregates was 500 nm immediately after the preparation of ABPX01^+. The ABPX01^+ aggregates then grew to a size of more than 1200 nm after 30 min. The particle size of ABPX01^+ in methanol and chloroform (respectively, containing 1% TFA) could not be calculated because the fluctuation of the scattered photons was not sufficiently observed owing to the subnanometer size.

[4] = UV-vis absorption spectra; conditions: 5 M, strong acid TFA/THF mixtures, cationic form
Description: as §1
What molecular species of ABPX are appropriate for the evaluation of AIEE in solution was examined. In order to examine to find the appropriate ABPX01 species, the absorbance spectra of […] of ABPX01 were measured in acid or alkaline solution. In THF solution and 1% TEA/THF mixture, the spectra had no peaks that were attributable to the neutral lactonoid species ABPX01^0. In the strong acid solutions of the TFA/THF mixtures, the absorbance spectra having two peaks at 490 nm and 540 nm should be attributable to the cationic form of ABPX01^+. ABPX01^+ is a quinonoid form delocalized over the luminophore and is therefore appropriate for the emission analysis.
The emission spectra are shown in (a) and (b) of FIG. 13. […]

solubility in THF ([1]; THF): easily dissolved
solubility in organic solvents ([1]; chloroform, methanol, acetone, THF, ethanol): easy to dissolve
solubility in water [1]: not easy to dissolve
solubility in water ([1]; listed as ABPX01^+): not in water
AIEE ([2]; 500 μM in 1% TFA/chloroform, methanol, ethanol or acetone): exhibited AIEE
emission in THF ([2]; 500 μM in THF): nonemissive
volume fraction of water at which emission could be observed ([2]; 500 μM, water/THF mixtures): 30%
emission intensity with increasing concentration ([2]; 5, 50, 500 μM in 1% TFA/methanol, excitation 365 nm): increased
emission with increasing solvent viscosity or decreasing temperature ([2]; glycerol/methanol viscosity increased or methanol temperature decreased): increased
particle size of aggregates ([3]; after 30 min): more than 1200 nm
particle size of aggregates ([3]; immediately after preparation): 500 nm
absorbance peaks [4]: 490 nm and 540 nm
Substance: 3′,3″-Bis (oxospriroisobenzofuran)-3,7-bis(diethylamino)benzopyranoxanthene [ABPX01]
